The assay addresses DDE (fibrin-derived polypeptide) (Homo sapiens, UniProt P02671+P02675+P02679). In words: Direct binding fluorescence polarization (FP) assay using 5-carboxyfluorescein labeled peptides. As to conditions: 20 nM CF5-labeled peptide, serial dilutions of DDE, anisotropy read at 485 nm; read-out: KD (μM) Direct Binding (n = 2). On the procedure: Assay of Fibrin Binding Peptides by Direct Binding Fluorescence Polarization (FP) Procedure using 5-Carboxyfluoresein Labeled Peptides
Protocol • 1. Prepare 1 mL of 40 nM solution of 5-carboxyfluorescein-labeled peptide in HEPES dilution buffer (HDB) with 0.01% Tween. • HDB (10 mM HEPES, 150 mM […], 2 mM CaCl2) • 2. Dilute the 40 nM solution to obtain 1 ml of a 20 nM solution of the test 5-carboxyfluorescein-labeled peptide. • 3. Prepare a solution of DDE at a concentration that will be approximately 5-10 fold greater than the expected KD. For the described assay an 8 μM concentration of DDE was prepared. • 4. Mix equal volumes of the DDE solution with the 40 nM peptide solution. • 5. Prepare serial dilutions of DDE in a solution consisting of the binding buffer with 0.01% Tween20 and 20 nM of the 5-carboxyfluorescein-labeled peptide. • 6. Make dilutions as shown in the following table in a Labsystems 384-well microplate and mix by repeated aspiration and dispensing of the solution into the wells. • 7. Centrifuge the plate at 2000 RPM for 5 minutes to remove air pockets in the wells. • 8. Read in Tecan Polarion Plate Reader at 485 nm to obtain the anisotropy value.
The anisotropy (in mP—millipolarization units) vs the logarithm of the concentration (micromoles/liter) of the receptor concentration is graphed. The dissociation constant is obtained at the midpoint of the curve whose extrema are Afree and Abound where Afree is the anisotropy of the free peptide and Abound is the anisotropy of the fully bound peptide. The theory, methods of operation and mathematical analysis is described in, for example, the following reference: Fluorescence Polarization Technical Resource Guide Technical Resource Guide 4th Edn. Invitrogen Corporation•501 Charmany Drive•Madison, Wis. 53719 USA. Particularly, the mathematical analysis of the data and obtaining binding constants is described in Chapter 8: Analysis of FP Binding Data pp 8-2-8-7.
(In general: In fluorescence polarisation assays a small probe gives low polarisation when free and higher when bound to something large.)

Consider eight compounds from patent US8466107B2, “Fibrin-binding peptides and conjugates thereof” (Bracco Imaging SpA, priority 2006, dated 2013).

Structures are written as SMILES. Bridge positions count the residues as written; N and C are the ends. Peptide text beside a SMILES is read from it. * marks the point of attachment. ξ: configuration not given here. αGalNAc = CC(=O)N[C@@H]1[C@@H](O)[C@@H](O)[C@@H](CO)O[C@@H]1*; 5FAM = O=C1OC2(c3ccc(O)cc3Oc3cc(O)ccc32)c2ccc(C(=O)*)cc21; ξTetrahydrofuran2carbonyl = O=C(C1CCCO1)*

By Kd is commonly meant a measure of binding affinity in units of concentration.

DDE (fibrin-derived polypeptide), sequence (P02671 124-216): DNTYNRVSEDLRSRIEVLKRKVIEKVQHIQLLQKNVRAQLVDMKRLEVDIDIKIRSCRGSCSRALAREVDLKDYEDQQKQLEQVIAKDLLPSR
DDE (fibrin-derived polypeptide), sequence (P02675 164-491): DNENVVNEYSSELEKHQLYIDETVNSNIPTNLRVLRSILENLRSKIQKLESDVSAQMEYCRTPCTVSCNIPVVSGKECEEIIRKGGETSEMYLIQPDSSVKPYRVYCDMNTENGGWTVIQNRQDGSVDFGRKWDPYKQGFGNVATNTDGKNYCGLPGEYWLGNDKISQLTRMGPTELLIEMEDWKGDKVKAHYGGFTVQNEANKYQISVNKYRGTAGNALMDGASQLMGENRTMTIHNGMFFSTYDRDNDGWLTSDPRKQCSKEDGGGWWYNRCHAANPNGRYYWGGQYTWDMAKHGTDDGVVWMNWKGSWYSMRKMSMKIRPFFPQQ
DDE (fibrin-derived polypeptide), sequence (P02679 114-432): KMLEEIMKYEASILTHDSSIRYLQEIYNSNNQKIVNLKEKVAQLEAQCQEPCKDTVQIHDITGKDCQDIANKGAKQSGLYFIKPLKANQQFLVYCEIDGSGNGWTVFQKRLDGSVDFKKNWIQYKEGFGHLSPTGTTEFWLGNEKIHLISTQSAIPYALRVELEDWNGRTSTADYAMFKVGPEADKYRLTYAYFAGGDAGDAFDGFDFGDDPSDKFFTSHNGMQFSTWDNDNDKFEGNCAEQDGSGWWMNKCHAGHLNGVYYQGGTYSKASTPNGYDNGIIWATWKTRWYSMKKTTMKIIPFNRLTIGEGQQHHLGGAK
DDE (fibrin-derived polypeptide), sequence (P02671 36-97): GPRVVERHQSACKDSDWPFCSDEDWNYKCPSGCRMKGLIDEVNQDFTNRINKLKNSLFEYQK
DDE (fibrin-derived polypeptide), sequence (P02675 45-152): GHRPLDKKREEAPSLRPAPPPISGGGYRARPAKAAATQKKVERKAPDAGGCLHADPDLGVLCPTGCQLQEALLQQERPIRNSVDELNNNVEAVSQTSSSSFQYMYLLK
DDE (fibrin-derived polypeptide), sequence (P02679 27-88): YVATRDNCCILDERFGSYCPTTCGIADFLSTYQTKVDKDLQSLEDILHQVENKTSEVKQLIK

On to `C[C@@H](O)[C@@H]1NC(=O)[C@H](Cc2c[nH]c3ccccc23)NC(=O)[C@H](CO)NC(=O)[C@H](CCC(=O)O)NC(=O)[C@H](Cc2c[nH]c3ccccc23)NC(=O)[C@@H]2CCCN2C(=O)[C@@H](NC(=O)[C@@H]2CCCN2C(=O)[C@H](CCC(N)=O)NC(=O)[C@H](Cc2c[nH]c3ccccc23)NC(=O)CNC(=O)[C@@H](N)CCCNC(=N)N)CSSC[C@@H](C(=O)N[C@@H](Cc2c[nH]c3ccccc23)C(=O)N[C@@H](CC(=O)O)C(=O)N2CCC[C@H]2C(=O)NCC(=O)NCC(=O)NCC(=O)N[C@@H](CCCCNC(=O)c2ccc3c(c2)C(=O)OC32c3ccc(O)cc3Oc3cc(O)ccc32)C(N)=O)NC(=O)[C@H](Cc2ccccc2)NC1=O` [Seq022-CF5] (H-RGWQPCPWESWTFCWDPGGGK(5FAM)-NH2; disulfide 6-14; N-terminus assumed), for which the Kd came to 0.28 µM.

In the case of `C[C@@H](O)[C@@H]1NC(=O)[C@H](Cc2c[nH]c3ccccc23)NC(=O)[C@H](CO)NC(=O)[C@H](CCC(=O)O)NC(=O)[C@H](Cc2c[nH]c3ccccc23)NC(=O)[C@@H]2CCCN2C(=O)[C@@H](NC(=O)[C@@H]2CCCN2C(=O)[C@H](CCC(N)=O)NC(=O)[C@H](Cc2c[nH]c3ccccc23)NC(=O)[C@@H](N)CCCNC(=N)N)CSSC[C@@H](C(=O)N[C@@H](Cc2c[nH]c3ccccc23)C(=O)N[C@@H](CC(=O)O)C(=O)N2CCC[C@H]2C(=O)NCC(=O)NCC(=O)NCC(=O)N[C@@H](CCCCNC(=O)c2ccc3c(c2)C(=O)OC32c3ccc(O)cc3Oc3cc(O)ccc32)C(N)=O)NC(=O)[C@H](Cc2ccccc2)NC1=O` [Seq023-CF5] (H-RWQPCPWESWTFCWDPGGGK(5FAM)-NH2; disulfide 5-13; N-terminus assumed), the Kd was 0.11 µM.

In the case of `CC(=O)N[C@@H](CO)C(=O)NCC(=O)N[C@@H](CO)C(=O)NCC(=O)N[C@@H](CO)C(=O)NCC(=O)N[C@@H](CO)C(=O)NCC(=O)N[C@@H](Cc1c[nH]c2ccccc12)C(=O)N[C@@H](CCC(N)=O)C(=O)N1CCC[C@H]1C(=O)N[C@H]1CSSC[C@@H](C(=O)N[C@@H](Cc2c[nH]c3ccccc23)C(=O)N[C@@H](CC(=O)O)C(=O)N2CCC[C@H]2C(=O)NCC(=O)NCC(=O)NCC(=O)N[C@@H](CCCCNC(=O)c2ccc3c(c2)C(=O)OC32c3ccc(O)cc3Oc3cc(O)ccc32)C(N)=O)NC(=O)[C@H](Cc2ccccc2)NC(=O)[C@H]([C@@H](C)O)NC(=O)[C@H](Cc2c[nH]c3ccccc23)NC(=O)[C@H](CO)NC(=O)[C@H](CCC(=O)O)NC(=O)[C@H](Cc2c[nH]c3ccccc23)NC(=O)[C@@H]2CCCN2C1=O` [Seq024-CF5] (Ac-SGSGSGSGWQPCPWESWTFCWDPGGGK(5FAM)-NH2; disulfide 12-20), the Kd turned out to be 0.47 µM.

Turning to `CC(=O)N[C@@H](CCCCN)C(=O)N[C@@H](CCCCN)C(=O)NCC(=O)N[C@@H](Cc1c[nH]c2ccccc12)C(=O)N[C@@H](CCC(N)=O)C(=O)N1CCC[C@H]1C(=O)N[C@H]1CSSC[C@@H](C(=O)N[C@@H](Cc2c[nH]c3ccccc23)C(=O)N[C@@H](CC(=O)O)C(=O)N2CCC[C@H]2C(=O)NCC(=O)NCC(=O)NCC(=O)N[C@@H](CCCCNC(=O)c2ccc3c(c2)C(=O)OC32c3ccc(O)cc3Oc3cc(O)ccc32)C(N)=O)NC(=O)[C@H](Cc2ccccc2)NC(=O)[C@H]([C@@H](C)O)NC(=O)[C@H](Cc2c[nH]c3ccccc23)NC(=O)[C@H](CO)NC(=O)[C@H](CCC(=O)O)NC(=O)[C@H](Cc2c[nH]c3ccccc23)NC(=O)[C@@H]2CCCN2C1=O` [Seq025-CF5] (Ac-KKGWQPCPWESWTFCWDPGGGK(5FAM)-NH2; disulfide 7-15), the Kd was 0.71 µM.

As for `CC(=O)N[C@@H](CCCCN)C(=O)NCC(=O)N[C@@H](CCCCN)C(=O)NCC(=O)N[C@@H](CCCCN)C(=O)NCC(=O)N[C@@H](Cc1c[nH]c2ccccc12)C(=O)N[C@@H](CCC(N)=O)C(=O)N1CCC[C@H]1C(=O)N[C@H]1CSSC[C@@H](C(=O)N[C@@H](Cc2c[nH]c3ccccc23)C(=O)N[C@@H](CC(=O)O)C(=O)N2CCC[C@H]2C(=O)NCC(=O)NCC(=O)NCC(=O)N[C@@H](CCCCNC(=O)c2ccc3c(c2)C(=O)OC32c3ccc(O)cc3Oc3cc(O)ccc32)C(N)=O)NC(=O)[C@H](Cc2ccccc2)NC(=O)[C@H]([C@@H](C)O)NC(=O)[C@H](Cc2c[nH]c3ccccc23)NC(=O)[C@H](CO)NC(=O)[C@H](CCC(=O)O)NC(=O)[C@H](Cc2c[nH]c3ccccc23)NC(=O)[C@@H]2CCCN2C1=O` [Seq026-CF5] (Ac-KGKGKGWQPCPWESWTFCWDPGGGK(5FAM)-NH2; disulfide 10-18), the Kd stood at 0.76 µM.

For the compound `CC(=O)N[C@H]1[C@@H](OC[C@H](NC(C)=O)C(=O)N[C@@H](Cc2c[nH]c3ccccc23)C(=O)N[C@@H](CCC(N)=O)C(=O)N2CCC[C@H]2C(=O)N[C@H]2CSSC[C@@H](C(=O)N[C@@H](Cc3c[nH]c4ccccc34)C(=O)N[C@@H](CC(=O)O)C(=O)N3CCC[C@H]3C(=O)NCC(=O)NCC(=O)NCC(=O)N[C@@H](CCCCNC(=O)c3ccc4c(c3)C(=O)OC43c4ccc(O)cc4Oc4cc(O)ccc43)C(N)=O)NC(=O)[C@H](Cc3ccccc3)NC(=O)[C@H]([C@@H](C)O)NC(=O)[C@H](Cc3c[nH]c4ccccc34)NC(=O)[C@H](CO)NC(=O)[C@H](CCC(=O)O)NC(=O)[C@H](Cc3c[nH]c4ccccc34)NC(=O)[C@@H]3CCCN3C2=O)O[C@H](CO)[C@H](O)[C@@H]1O` [Seq027-CF5] (Ac-S(αGalNAc)WQPCPWESWTFCWDPGGGK(5FAM)-NH2; disulfide 5-13), the Kd turned out to be 0.5 µM.

For `C[C@@H](O)[C@@H]1NC(=O)[C@H](Cc2c[nH]c3ccccc23)NC(=O)[C@H](CO)NC(=O)[C@H](CCC(=O)O)NC(=O)[C@H](Cc2c[nH]c3ccccc23)NC(=O)[C@@H]2CCCN2C(=O)[C@@H](NC(=O)[C@@H]2CCCN2C(=O)[C@H](CCC(N)=O)NC(=O)[C@H](Cc2c[nH]c3ccccc23)NC(=O)C2CCCO2)CSSC[C@@H](C(=O)N[C@@H](Cc2c[nH]c3ccccc23)C(=O)N[C@@H](CC(=O)O)C(=O)N2CCC[C@H]2C(=O)NCC(=O)NCC(=O)NCC(=O)N[C@@H](CCCCNC(=O)c2ccc3c(c2)C(=O)OC32c3ccc(O)cc3Oc3cc(O)ccc32)C(N)=O)NC(=O)[C@H](Cc2ccccc2)NC1=O` (some centres unmarked) [Seq028-CF5] (ξTetrahydrofuran2carbonyl-WQPCPWESWTFCWDPGGGK(5FAM)-NH2; disulfide 4-12), the Kd stood at 1.21 µM.

For `CC(=O)NCC(=O)N1CCC[C@H]1C(=O)N1CCC[C@H]1C(=O)NCC(=O)N[C@@H](Cc1c[nH]c2ccccc12)C(=O)N[C@@H](CCC(N)=O)C(=O)N1CCC[C@H]1C(=O)N[C@H]1CSSC[C@@H](C(=O)N[C@@H](Cc2c[nH]c3ccccc23)C(=O)N[C@@H](CC(=O)O)C(=O)N2CCC[C@H]2C(=O)NCC(=O)NCC(=O)NCC(=O)N[C@@H](CCCCNC(=O)c2ccc3c(c2)C(=O)OC32c3ccc(O)cc3Oc3cc(O)ccc32)C(N)=O)NC(=O)[C@H](Cc2ccccc2)NC(=O)[C@H]([C@@H](C)O)NC(=O)[C@H](Cc2c[nH]c3ccccc23)NC(=O)[C@H](CO)NC(=O)[C@H](CCC(=O)O)NC(=O)[C@H](C)NC(=O)[C@@H]2CCCN2C1=O` [Seq034-CF5] (Ac-GPPGWQPCPAESWTFCWDPGGGK(5FAM)-NH2; disulfide 8-16), the Kd was determined as 0.31 µM.
